Holding throughout (assay): relative viability (nuclei count vs DMSO), 5 days (fraction); higher = more cells survive
Compound in the test “RAF265 + Decitabine”: Cn1c(Nc2ccc(C(F)(F)F)cc2)nc2cc(Oc3ccnc(-c4ncc(C(F)(F)F)[nH]4)c3)ccc21 [RAF265] + Nc1ncn([C@H]2C[C@H](O)[C@@H](CO)O2)c(=O)n1 [Decitabine] (partner 2 µM)
Put shortly:
(§1)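 A single step with final 0.05% Triton X-100, 1% formaldehyde and 1 ug/ml Hoechst fixed the cells and stained nuclei 5 days after treatment. Lung cancer cell lines in 1536-well plates had been treated by pin tool the day after seeding with one drug alone or a fixed anchor-drug dose plus five library-drug doses (not always all listed) in √10 steps, and nuclei were counted on 4× images. Relative viability is the ratio of nuclei in treated wells to nuclei in vehicle wells, taken as the median of duplicate plates.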

Compound in the test “RAF265 + Bortezomib”: Cn1c(Nc2ccc(C(F)(F)F)cc2)nc2cc(Oc3ccnc(-c4ncc(C(F)(F)F)[nH]4)c3)ccc21 [RAF265] + CC(C)C[C@H](NC(=O)[C@H](Cc1ccccc1)NC(=O)c1cnccn1)B(O)O [Bortezomib] (partner 0.002 µM)
Put shortly:
as §1

Compound in the test “Doramapimod + Luminespib”: Cc1ccc(-n2nc(C(C)(C)C)cc2NC(=O)Nc2ccc(OCCN3CCOCC3)c3ccccc23)cc1 [Doramapimod] + CCNC(=O)c1noc(-c2cc(C(C)C)c(O)cc2O)c1-c1ccc(CN2CCOCC2)cc1 [Luminespib] (partner 0.01 µM)
The gist of the method: as §1

Compound in the test “Doramapimod + Crizotinib”: Cc1ccc(-n2nc(C(C)(C)C)cc2NC(=O)Nc2ccc(OCCN3CCOCC3)c3ccccc23)cc1 [Doramapimod] + C[C@@H](Oc1cc(-c2cnn(C3CCNCC3)c2)cnc1N)c1c(Cl)ccc(F)c1Cl [Crizotinib] (partner 1 µM)
The gist of the method:
as §1

UMC-11: the relative viability came out at 0.621 with RAF265 + Decitabine (first compound 0.01 µM); 0.404 with RAF265 + Decitabine (first compound 0.03162 µM); 0.621 with RAF265 + Decitabine (first compound 0.1 µM); 0.604 with RAF265 + Decitabine (first compound 0.3162 µM); 0.363 with RAF265 + Decitabine (first compound 1 µM); 0.624 with RAF265 + Bortezomib (first compound 0.01 µM). Besides, the relative viability with RAF265 + Bortezomib (first compound 0.03162 µM) worked out at 0.724; with RAF265 + Bortezomib (first compound 0.1 µM), 0.758; in the test with RAF265 + Bortezomib (first compound 0.3162 µM), 0.745; in the test with RAF265 + Bortezomib (first compound 1 µM) it was 0.537; with Doramapimod + Luminespib (first compound 0.02 µM), 0.911; in the test with Doramapimod + Luminespib (first compound 0.06325 µM) it was 0.869. The relative viability was 0.904 with Doramapimod + Luminespib (first compound 0.2 µM); 0.965 with Doramapimod + Luminespib (first compound 0.6325 µM); 0.913 in the test with Doramapimod + Luminespib (first compound 2 µM); 0.58 in the test with Doramapimod + Crizotinib (first compound 0.02 µM); 0.623 with Doramapimod + Crizotinib (first compound 0.06325 µM); 0.608 with Doramapimod + Crizotinib (first compound 0.2 µM). Further, the relative viability in the test with Doramapimod + Crizotinib (first compound 0.6325 µM) was 0.609; with Doramapimod + Crizotinib (first compound 2 µM) it was 0.567.

The values above are taken from the supplement of paper PMC10307832.
